# Test results as given in patent US20260248763A1 (BIO GENUINE (SHANGHAI) BIOTECH CO., LTD, priority 2023, published 2026).
# Tests used:
# V1aR = molecular target: T1, V1aR (Homo sapiens, UniProt P37288); test: Ca2+ mobilization in cells stably expressing V1aR (FLIPR, antagonist mode); assay type: cell-based; conditions: V1a-CHO stably transfected cell line
# T1 construct: expressed in transfected cells; host or cells: V1a-CHO stably transfected cell line
# [1] = Blood-brain distribution determination in SD rats; assay type: in vivo; conditions: female SD rats, oral, 5 mg/kg; for Kp / AUC(0-t): rat; for Kp: brain/plasma, read-out: Brain/plasma exposure ratio; for AUC(0-t): plasma, read-out: Plasma area under the curve AUC0-t
# Description: Test Example 4: Blood-Brain Distribution Determination in SD Rats
# In this study, female SD rats were selected as test animals. The LC/MS/MS method was used to quantitatively determine the drug concentrations of the test compounds in plasma and brain tissues at three different time points (0.5 h, 2 h, 4 h or 6 h) after oral administration (5 mg/kg or 10 mg/kg) in rats, so as to evaluate the pharmacokinetic profile of the test drugs in rats.
# The example compounds of the present disclosure, made in house.
# SD rats (female, 180-220 g, 6-8 weeks old, purchased from Beijing Vital River Laboratory Animal Technology Co., Ltd., with animal production license number SCXK (Beijing) 2021-0006).
# Vehicle for oral administration: 5% DMSO+95% PEG400 or a mixture of (50% Labrasol+50% Water).
# The test compound, formulated as a clear solution or suspension, was administered to overnight-fasted SD rats via oral gavage. For oral gavage, blood samples (0.25 mL) were collected via jugular vein puncture at pre-dose (0 h) and 0.5 h, 2 h, 4 h or 6 h post-dose. The samples were placed into sodium heparin anticoagulant tubes. After collection, the blood samples were placed on wet ice and centrifuged within 1 hour to separate the plasma. The separated plasma was stored frozen in a −80° C. freezer. After blood collection, the animals were euthanized by cervical dislocation. The whole brain tissue was dissected out. The collected brain tissue was first rinsed with physiological saline, blotted dry with absorbent paper, and then stored frozen in a −80° C. freezer. Prior to analysis, the brain tissue samples and plasma samples were taken out from the −80° C. freezer. After the brain tissue samples were completely thawed, a given amount of brain tissue was weighed, and 50% methanol/water was added for homogenization. Drug concentrations in plasma and brain tissues were determined using the LC-MS/MS method, and the relevant pharmacokinetic parameters were calculated using the non-compartmental model with linear-log trapezoidal method in Phoenix WinNonlin 8.2.0 pharmacokinetic software.
# T1 sequence (P37288 whole entry, species assumed): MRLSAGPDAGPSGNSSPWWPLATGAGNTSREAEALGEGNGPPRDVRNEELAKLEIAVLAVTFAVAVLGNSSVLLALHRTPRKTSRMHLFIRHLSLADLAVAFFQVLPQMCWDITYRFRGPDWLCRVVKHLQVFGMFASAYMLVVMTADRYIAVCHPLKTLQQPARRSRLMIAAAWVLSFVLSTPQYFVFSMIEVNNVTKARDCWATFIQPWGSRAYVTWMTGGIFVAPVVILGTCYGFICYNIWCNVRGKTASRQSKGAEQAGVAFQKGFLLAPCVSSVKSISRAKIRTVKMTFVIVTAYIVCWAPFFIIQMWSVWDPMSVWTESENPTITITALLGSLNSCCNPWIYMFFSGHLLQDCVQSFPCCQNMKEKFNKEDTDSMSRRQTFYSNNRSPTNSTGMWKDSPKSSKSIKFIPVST
SMILES,IC50 (V1aR),Brain tissue area under the curve AUC0-t [1],Kp [1],AUC(0-t) [1]
"CON=C1CC(CO)N(C(=O)c2ccc(-c3cccc(C#N)c3C)c3c2OCO3)C1 (single isomer, unassigned) [Example C0099]",5280 nM,150 ng·h/g,0.1,1460 ng·h/mL
"CO/N=C1/C[C@@H]([C@@H](C)O)N(C(=O)c2ccc(-c3cccc(C#N)c3C)cc2)C1 (single isomer, unassigned) [Example C0112]",602 nM,818 ng·h/g,0.52,1570 ng·h/mL
"CO/N=C1/C[C@@H](CO)N(C(=O)c2ccc(-c3cccc(C#N)c3Cl)cc2)C1 [Example A0203, 2-Chloro-3-(4-[(2S, 4Z)-2-(hydroxymethyl)-4-(methoxyimino)pyrrolidine-1-carbonyl]phenyl)benzonitrile]",1360 nM,2579 ng·h/g,0.39,6670 ng·h/mL
"CO/N=C1/C[C@@H](CO)N(C(=O)c2ccc(-c3cccc(C#N)c3C)cc2)C1 [Example C0058, (S, Z)-4′-(2-(Hydroxymethyl)-4-(methoxyimino)pyrrolidine-1-carbonyl)-2-methyl-[1,1′-biphenyl]-3-carbonitrile]",2250 nM,1109 ng·h/g,0.32,3520 ng·h/mL
"CO/N=C1/C[C@@H](CO)N(C(=O)c2ccc(-c3cc(F)cc(C#N)c3C)c3c2OCCO3)C1 [Example C0152, (S,Z)-5-Fluoro-3-(8-(2-(hydroxymethyl)-4-(methoxyimino)pyrrolidine-1-carbonyl)-2,3-dihydrobenzo[b][1,4]dioxin-5-yl)-2-methylbenzonitrile]",9810 nM,169 ng·h/g,0.08,2050 ng·h/mL
